pIC50: −log10 of the molar value.
target: T1, CYP11A1 (Homo sapiens, UniProt P05108); experiment: CYP11A1 inhibition, isocaproic acid release assay (IARA) in H295R cells; type: cell-based; conditions: human H295R adrenocortical carcinoma cells treated three days, 3 nM [24,25-3H]-labelled cholesterol, 1% DMSO; read-out: IC50 on CYP11A1 inhibition (Group)
T1 construct: human H295R adrenocortical carcinoma cell line was used as source of enzyme; endogenous in cells; host or cells: H295R human adrenocortical carcinoma cells
T1 sequence (P05108 40-521): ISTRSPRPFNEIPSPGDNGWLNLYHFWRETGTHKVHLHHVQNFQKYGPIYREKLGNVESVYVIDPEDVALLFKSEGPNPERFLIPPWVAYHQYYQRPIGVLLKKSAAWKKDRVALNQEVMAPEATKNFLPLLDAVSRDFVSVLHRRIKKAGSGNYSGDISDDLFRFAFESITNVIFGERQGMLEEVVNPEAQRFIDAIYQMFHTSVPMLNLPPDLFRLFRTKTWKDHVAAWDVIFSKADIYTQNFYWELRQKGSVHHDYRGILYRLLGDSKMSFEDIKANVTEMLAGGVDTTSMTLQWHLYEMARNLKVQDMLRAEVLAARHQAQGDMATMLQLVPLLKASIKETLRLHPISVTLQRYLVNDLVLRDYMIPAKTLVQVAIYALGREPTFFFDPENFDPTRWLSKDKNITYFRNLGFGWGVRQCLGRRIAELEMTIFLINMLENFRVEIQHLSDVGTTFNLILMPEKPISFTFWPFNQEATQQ
Description: The ability of the test compounds to inhibit conversion of cholesterol to pregnenolone and isocaproic acid was measured by modification of isocaproic acid release assay (IARA) described by Ruangwises et al. (Biology of Reproduction 1991; 45(1):143-50) except that human H295R adrenocortical carcinoma cell line was used as source of enzyme and extraction was done with dextran-coated charcoal suspension (Isomaa, V. et al., Endocrinology 1982; 111(3):833-843). […] To determine the half maximal inhibitory concentration (IC50) of the test compounds on CYP11A1 inhibition, the cells were treated for three days with increasing concentrations of the test compounds in the presence of 3 nM [24,25-3H]-labelled cholesterol (American Radiolabelled Chemicals).
The final DMSO concentration was 1%. Cell culture medium was extracted with dextran-coated charcoal suspension and the radiolabelled isocaproic acid was determined by mixing 100 μl of supernatant fraction in 200 μl of scintillation fluid (OptiPhase SuperMix, Perkin Elmer). Radioactivity was measured using a Microbeta scintillation counter (1450 MicroBeta Trilux, Wallac). All the test compounds were studied at 10 concentrations in duplicates.

SMILES	pIC50
COc1cc(CN2Cc3ccccc3C2)ccc1OCc1ccc(C(=O)N(C)CCOC(C)=O)cc1 [Compound 36, 2-(4-((4-(Isoindolin-2-ylmethyl)-2-methoxyphenoxy)methyl)-N-methyl-benzamido)ethyl acetate]	6.46 to 6.82
COCCc1cc(CN2Cc3ccccc3C2)ccc1OCC1CCN(S(C)(=O)=O)CC1 [Compound 37, 2-(3-(2-Methoxyethyl)-4-((1-(methylsulfonyl)piperidin-4-yl)methoxy)benzyl)-isoindoline]	6.46 to 6.82
CS(=O)(=O)N1CCC(COc2ccc(CN3Cc4ccccc4C3)c3cn[nH]c23)CC1 [Compound 38, 4-(Isoindolin-2-ylmethyl)-7-((1-(methylsulfonyl)piperidin-4-yl)methoxy)-1H-indazole]	> 6.82
COC(=O)c1ccc(COc2ccc(CN3Cc4ccccc4C3)cc2[N+](=O)[O-])cc1 [Compound 39, Methyl 4-((4-(isoindolin-2-ylmethyl)-2-nitrophenoxy)methyl)benzoate]	5.82 to 6.45
CN(C)C(=O)c1ccc(COc2ccc(CN3Cc4ccccc4C3)cc2[N+](=O)[O-])cc1 [Compound 40, 4-((4-(isoindolin-2-ylmethyl)-2-nitrophenoxy)methyl)-N,N-dimethylbenzamide]	> 6.82
CN(C)C(=O)c1ccc(COc2ccc(CN3Cc4ccccc4C3)c3cccnc23)cc1 [Compound 41, 4-(((5-(Isoindolin-2-ylmethyl)quinolin-8-yl)oxy)methyl)-N,N-dimethyl-benzamide]	> 6.82
CC(=O)c1cc(CN2Cc3ccccc3C2)ccc1OCc1ccc(C(=O)N(C)C)cc1 [Compound 42, 4-((2-Acetyl-4-(isoindolin-2-ylmethyl)phenoxy)methyl)-N,N-dimethylbenzamide]	> 6.82
CCS(=O)(=O)c1ccc(COc2ccc(CN3Cc4ccccc4C3)cc2C(C)=O)cc1 [Compound 43, 1-(2-((4-(Ethylsulfonyl)benzyl)oxy)-5-(isoindolin-2-ylmethyl)phenyl)ethan-1-one]	> 6.82
CS(=N)(=O)c1ccc(COc2ccc(CN3Cc4ccccc4C3)c3cccnc23)cc1 (centres unmarked) [Compound 44, Imino(4-(((5-(isoindolin-2-ylmethyl)quinolin-8-yl)oxy)methyl)phenyl)(methyl)-λ^6-sulfanone]	> 6.82
CS(=N)(=O)c1ccc(COc2ccc(CN3Cc4ccccc4C3)c3ocnc23)cc1 (centres unmarked) [Compound 45, Imino(4-(((7-(isoindolin-2-ylmethyl)benzo[d]oxazol-4-yl)oxy)methyl)phenyl)-(methyl)-λ^6-sulfanone]	5.82 to 6.45
CS(=O)(=O)N1CCC(COc2ccc(CN3Cc4ccccc4C3)c3ncoc23)CC1 [Compound 46, 4-(Isoindolin-2-ylmethyl)-7-((1-(methylsulfonyl)piperidin-4-yl)methoxy)-benzo[d]oxazole]	5.82 to 6.45
Cn1ncc2c(CN3Cc4ccccc4C3)ccc(OCC3CCN(S(C)(=O)=O)CC3)c21 [Compound 47, 4-(Isoindolin-2-ylmethyl)-1-methyl-7-((1-(methylsulfonyl)piperidin-4-yl)-methoxy)-1H-indazole]	> 6.82
CC(=O)c1cc(CN2Cc3ccccc3C2)ccc1OCC1CCN(S(C)(=O)=O)CC1 [Compound 48, 1-(5-(Isoindolin-2-ylmethyl)-2-((1-(methylsulfonyl)piperidin-4-yl)methoxy)-phenyl)ethan-1-one]	> 6.82
CCC(=O)N1CCC(COc2ccc(CN3Cc4ccccc4C3)cc2C(C)=O)CC1 [Compound 49, 1-(4-((2-Acetyl-4-(isoindolin-2-ylmethyl)phenoxy)methyl)piperidin-1-yl)propan-1-one]	6.46 to 6.82
CC(=O)c1cc(CN2Cc3ccccc3C2)ccc1OCC1CCC(S(C)(=O)=O)CC1 (centres unmarked) [Compound 50, 1-(5-(Isoindolin-2-ylmethyl)-2-((4-(methylsulfonyl)cyclohexyl)methoxy)-phenyl)ethan-1-one]	6.46 to 6.82
CS(=O)(=O)N1CCC(COc2ccc(CN3Cc4ccccc4C3)c3cccnc23)CC1 [Compound 51, 5-(Isoindolin-2-ylmethyl)-8-((1-(methylsulfonyl)piperidin-4-yl)methoxy)-quinoline]	> 6.82
CN(C)C(=O)c1ccc(COc2ccc(CN3Cc4ccccc4C3)cc2N)cc1 [Compound 52, 4-((2-Amino-4-(isoindolin-2-ylmethyl)phenoxy)methyl)-N,N-dimethyl-benzamide]	5.82 to 6.45
CN(C)C(=O)c1ccc(COc2ccc(CN3Cc4ccccc4C3)cc2NS(C)(=O)=O)cc1 [Compound 53, 4-((4-(Isoindolin-2-ylmethyl)-2-(methylsulfonamido)phenoxy)methyl)-N,N-dimethylbenzamide]	5.82 to 6.45
CS(=O)(=O)c1ccc(COc2ccc(CN3Cc4ccccc4C3)cc2C(N)=O)cc1 [Compound 54, 5-(Isoindolin-2-ylmethyl)-2-((4-(methylsulfonyl)benzyl)oxy)benzamide]	> 6.82
CS(=O)(=O)N1CCC(COc2ccc(CN3Cc4ccccc4C3)cc2C(F)(F)F)CC1 [Compound 56]	6.46 to 6.82
